Results taken from publication PMC6138693, “Structural determinants of Rab11 activation by the guanine nucleotide exchange factor SH3BP5” (Nature Communications, 2018).
Values belong to the molecule of their own block, whether it stands above or below them.

Experiments:
Rab11A [1] = target: T1, Rab11A (Homo sapiens, UniProt P62491); assay: Mant-GDP loading, then fluorescence release on GEF-driven exchange; format: binding; conditions: labelled compound; nucleotide site; Mg2+, 100 uM GTPgammaS, SH3BP5 as exchange factor
T1 construct: Rab11A with C-terminal His-tag kept, N-terminal GST cut by TEV; E. coli BL21 C41 (residues 1-211 given for the His-tagged HDX construct)

Rab11A [2] = target: T2, Rab11A (Homo sapiens, UniProt P62491, K24R, form not given); assay: as above; format: binding; conditions: labelled compound; nucleotide site; Mg2+, 100 uM GTPgammaS, with and without SH3BP5
T2 construct: Rab11A with C-terminal His-tag kept, N-terminal GST cut by TEV; E. coli BL21 C41 (residues 1-211 given for the His-tagged HDX construct)

Rab11A [3] = target: T3, Rab11A (Homo sapiens, UniProt P62491, S40F, form not given); assay: as above; format: binding; conditions: labelled compound; nucleotide site; Mg2+, 100 uM GTPgammaS, with and without SH3BP5
T3 construct: Rab11A with C-terminal His-tag kept, N-terminal GST cut by TEV; E. coli BL21 C41 (residues 1-211 given for the His-tagged HDX construct)

Rab12 = target: T4, Rab12 (Homo sapiens, UniProt Q6IQ22); assay: Mant-GDP loading, fluorescence release assay; format: binding; conditions: labelled compound; nucleotide site; Mg2+, 100 uM GTPgammaS, SH3BP5 as exchange factor
T4 construct: recombinant in E. coli, N-terminal GST cut by TEV

Rab11A [4] = target: T5, Rab11A (Homo sapiens, UniProt P62491, S25N, form not given); assay: Mant-GDP loading, then fluorescence release on GEF-driven exchange; format: binding; conditions: labelled compound; without SH3BP5
T5 construct: Rab11A with C-terminal His-tag kept, N-terminal GST cut by TEV; E. coli BL21 C41 (residues 1-211 given for the His-tagged HDX construct)

Rab4B = target: T6, Rab4B (Homo sapiens, UniProt P61018); assay: Mant-GDP loading, fluorescence release assay; format: binding; conditions: labelled compound; nucleotide site; Mg2+, 100 uM GTPgammaS, SH3BP5 as exchange factor
T6 construct: recombinant in E. coli, N-terminal GST cut by TEV

Rab11A [5] = target: T7, Rab11A (Homo sapiens, UniProt P62491, I44A, form not given); assay: Mant-GDP loading, then fluorescence release on GEF-driven exchange; format: binding; conditions: labelled compound; nucleotide site; Mg2+, 100 uM GTPgammaS, with and without SH3BP5
T7 construct: Rab11A with C-terminal His-tag kept, N-terminal GST cut by TEV; E. coli BL21 C41 (residues 1-211 given for the His-tagged HDX construct)

Rab2A = target: T8, Rab2A (Homo sapiens, UniProt P61019); assay: Mant-GDP loading, fluorescence release assay; format: binding; conditions: labelled compound; nucleotide site; Mg2+, 100 uM GTPgammaS, SH3BP5 as exchange factor
T8 construct: recombinant in E. coli, N-terminal GST cut by TEV

Rab14 = target: T9, Rab14 (Homo sapiens, UniProt P61106); assay: Mant-GDP loading, fluorescence release assay; format: binding; conditions: labelled compound; nucleotide site; Mg2+, 100 uM GTPgammaS, SH3BP5 as exchange factor
T9 construct: recombinant in E. coli, N-terminal GST cut by TEV

Rab11A [6] = target: T10, Rab11A (Homo sapiens, UniProt P62491, L38P, form not given); assay: Mant-GDP loading, then fluorescence release on GEF-driven exchange; format: binding; conditions: labelled compound; nucleotide site; Mg2+, 100 uM GTPgammaS, with and without SH3BP5
T10 construct: Rab11A with C-terminal His-tag kept, N-terminal GST cut by TEV; E. coli BL21 C41 (residues 1-211 given for the His-tagged HDX construct)

Rab25 = target: T11, Rab25 (Homo sapiens, UniProt P57735); assay: as above; format: binding; conditions: labelled compound; nucleotide site; Mg2+, 100 uM GTPgammaS, SH3BP5 as exchange factor
T11 construct: C-terminal His-tag, N-terminal GST cut by TEV; E. coli Rosetta

Rab11A [7] = target: T12, Rab11A (Homo sapiens, UniProt P62491, F36A, form not given); assay: as above; format: binding; conditions: labelled compound; nucleotide site; Mg2+, 100 uM GTPgammaS, with and without SH3BP5
T12 construct: Rab11A with C-terminal His-tag kept, N-terminal GST cut by TEV; E. coli BL21 C41 (residues 1-211 given for the His-tagged HDX construct)

Rab11A [8] = target: T13, Rab11A (Homo sapiens, UniProt P62491, R82C, form not given); assay: as above; format: binding; conditions: labelled compound; nucleotide site; Mg2+, 100 uM GTPgammaS, with and without SH3BP5
T13 construct: Rab11A with C-terminal His-tag kept, N-terminal GST cut by TEV; E. coli BL21 C41 (residues 1-211 given for the His-tagged HDX construct)

Rab8 = target: T14, Rab8 (Homo sapiens, UniProt P61006); assay: Mant-GDP loading, fluorescence release assay; format: binding; conditions: labelled compound; nucleotide site; Mg2+, 100 uM GTPgammaS, SH3BP5 as exchange factor
T14 construct: gene RAB8A; recombinant in E. coli, N-terminal GST cut by TEV

Rab11A [9] = target: T15, Rab11A (Homo sapiens, UniProt P62491, Q70L, form not given); assay: Mant-GDP loading, then fluorescence release on GEF-driven exchange; format: binding; conditions: labelled compound; nucleotide site; Mg2+, 100 uM GTPgammaS, SH3BP5 as exchange factor
T15 construct: Rab11A with C-terminal His-tag kept, N-terminal GST cut by TEV; E. coli BL21 C41 (residues 1-211 given for the His-tagged HDX construct)

[10] = target: WT Rab11A (1–211, C-term his) (human) (UniProt P62491)
Rab11A S40F (human) = Rab11A S40F (human) (UniProt P62491)
Rab11A L38P (human) = Rab11A L38P (human) (UniProt P62491)
Rab11A K41P (human) = Rab11A K41P (human) (UniProt P62491)
Rab11A K13N (human) = Rab11A K13N (human) (UniProt P62491)
Rab11A K13N (human), sequence (P62491 whole entry K13N): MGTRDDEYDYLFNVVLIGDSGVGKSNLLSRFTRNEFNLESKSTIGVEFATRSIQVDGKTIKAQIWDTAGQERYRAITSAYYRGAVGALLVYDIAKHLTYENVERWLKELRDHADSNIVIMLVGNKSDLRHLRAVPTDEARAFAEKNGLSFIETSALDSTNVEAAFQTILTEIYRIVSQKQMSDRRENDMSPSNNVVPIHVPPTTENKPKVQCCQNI

T5 sequence (P62491 1-211 S25N, form open): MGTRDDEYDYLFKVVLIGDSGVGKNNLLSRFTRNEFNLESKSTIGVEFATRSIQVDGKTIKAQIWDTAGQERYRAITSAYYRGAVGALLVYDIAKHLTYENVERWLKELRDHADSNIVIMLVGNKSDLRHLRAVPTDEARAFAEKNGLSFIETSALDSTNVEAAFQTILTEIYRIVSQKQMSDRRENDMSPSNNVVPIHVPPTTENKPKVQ
T7 sequence (P62491 1-211 I44A, form open): as the sequence (P62491 1-211 S25N, form open) above, with N25S, I44A counted along it
T9 sequence (P61106 whole entry): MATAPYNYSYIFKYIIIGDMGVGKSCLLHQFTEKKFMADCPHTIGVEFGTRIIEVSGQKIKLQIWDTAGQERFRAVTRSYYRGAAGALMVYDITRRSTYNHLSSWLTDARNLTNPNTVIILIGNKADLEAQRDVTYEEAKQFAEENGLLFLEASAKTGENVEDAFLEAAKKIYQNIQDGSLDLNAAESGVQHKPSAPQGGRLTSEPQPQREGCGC
T14 sequence (P61006 whole entry): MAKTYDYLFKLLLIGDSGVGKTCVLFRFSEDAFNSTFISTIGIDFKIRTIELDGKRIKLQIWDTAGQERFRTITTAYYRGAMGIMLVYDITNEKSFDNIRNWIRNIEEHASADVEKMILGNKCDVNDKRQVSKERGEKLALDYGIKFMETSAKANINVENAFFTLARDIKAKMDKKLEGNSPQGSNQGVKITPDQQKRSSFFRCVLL
T11 sequence (P57735 whole entry): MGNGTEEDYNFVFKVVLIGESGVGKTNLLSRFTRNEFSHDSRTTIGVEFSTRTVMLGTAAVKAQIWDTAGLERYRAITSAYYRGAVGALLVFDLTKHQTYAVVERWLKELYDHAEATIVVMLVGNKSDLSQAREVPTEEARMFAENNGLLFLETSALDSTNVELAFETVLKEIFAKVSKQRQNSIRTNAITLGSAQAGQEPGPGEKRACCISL
T12 sequence (P62491 1-211 F36A, form open): as the sequence (P62491 1-211 S25N, form open) above, with N25S, F36A counted along it
T13 sequence (P62491 1-211 R82C, form open): as the sequence (P62491 1-211 S25N, form open) above, with N25S, R82C counted along it
T10 sequence (P62491 1-211 L38P, form open): as the sequence (P62491 1-211 S25N, form open) above, with N25S, L38P counted along it
T6 sequence (P61018 whole entry): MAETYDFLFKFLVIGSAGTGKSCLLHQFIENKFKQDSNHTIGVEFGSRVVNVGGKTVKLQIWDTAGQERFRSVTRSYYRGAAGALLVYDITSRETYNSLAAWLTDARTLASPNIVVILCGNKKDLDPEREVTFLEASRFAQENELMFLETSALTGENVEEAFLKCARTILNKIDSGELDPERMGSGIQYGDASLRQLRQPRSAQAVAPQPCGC
T2 sequence (P62491 1-211 K24R, form open): as the sequence (P62491 1-211 S25N, form open) above, with K24R, N25S counted along it
T8 sequence (P61019 whole entry): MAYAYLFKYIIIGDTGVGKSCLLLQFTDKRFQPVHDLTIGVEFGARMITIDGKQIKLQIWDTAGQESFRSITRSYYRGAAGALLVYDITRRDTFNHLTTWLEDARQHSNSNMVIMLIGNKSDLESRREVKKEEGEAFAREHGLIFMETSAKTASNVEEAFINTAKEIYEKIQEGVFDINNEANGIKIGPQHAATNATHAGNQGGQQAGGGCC
T15 sequence (P62491 1-211 Q70L, form open): as the sequence (P62491 1-211 S25N, form open) above, with N25S, Q70L counted along it
T1 sequence (P62491 1-211): as the sequence (P62491 1-211 S25N, form open) above, with N25S counted along it
WT Rab11A (1–211, C-term his) (human), sequence (P62491 1-211): as the sequence (P62491 1-211 S25N, form open) above, with N25S counted along it
T4 sequence (Q6IQ22 whole entry): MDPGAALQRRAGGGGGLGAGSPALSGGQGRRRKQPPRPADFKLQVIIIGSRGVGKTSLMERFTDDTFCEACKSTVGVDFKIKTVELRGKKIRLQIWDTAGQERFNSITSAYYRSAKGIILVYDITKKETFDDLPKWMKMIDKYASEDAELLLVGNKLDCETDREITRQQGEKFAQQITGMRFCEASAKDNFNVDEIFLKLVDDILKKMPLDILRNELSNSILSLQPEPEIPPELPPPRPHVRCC
T3 sequence (P62491 1-211 S40F, form open): as the sequence (P62491 1-211 S25N, form open) above, with N25S, S40F counted along it

Molecule: CNc1ccccc1C(=O)O[C@H]1C[C@H](n2cnc3c(=O)[nH]c(N)nc32)O[C@@H]1COP(=O)(O)OP(=O)(O)O [Mant-GDP, 3-(N-methyl-anthraniloyl)-2-deoxy-GDP]
Mant-GDP loading, then fluorescence release on GEF-driven exchange (Rab11A [1]): Rab11 isoforms Rab11A and Rab25 loaded with the fluorescent GDP analog | Mant-GDP loading, then fluorescence release on GEF-driven exchange (Rab11A [2]): this mutant had rapid nucleotide exchange even in the absence of SH3BP5 | Mant-GDP loading, then fluorescence release on GEF-driven exchange (Rab11A [3]): Rab2A (L38P), Rab8 (S40F), and Rab14 (K41P) were also found to decrease GEF activity | Mant-GDP loading, fluorescence release assay (Rab12): panel of evolutionarily related Rab GTPases loaded with Mant-GDP | Mant-GDP loading, then fluorescence release on GEF-driven exchange (Rab11A [4]): Rab11A (S25N) caused rapid release of Mant-GDP even in the absence of SH3BP5 | Mant-GDP loading, fluorescence release assay (Rab4B): panel of evolutionarily related Rab GTPases loaded with Mant-GDP | Mant-GDP loading, then fluorescence release on GEF-driven exchange (Rab11A [5]): F36 and I44 residues, with mutation of these residues to Alanine | Mant-GDP loading, fluorescence release assay (Rab2A): panel of evolutionarily related Rab GTPases loaded with Mant-GDP | Mant-GDP loading, fluorescence release assay (Rab14): panel of evolutionarily related Rab GTPases loaded with Mant-GDP | Mant-GDP loading, then fluorescence release on GEF-driven exchange (Rab11A [6]): Rab2A (L38P), Rab8 (S40F), and Rab14 (K41P) were also found to decrease GEF activity | Mant-GDP loading, then fluorescence release on GEF-driven exchange (Rab25): Rab11 isoforms Rab11A and Rab25 loaded with the fluorescent GDP analog | Mant-GDP loading, then fluorescence release on GEF-driven exchange (Rab11A [7]): F36 and I44 residues, with mutation of these residues to Alanine | Mant-GDP loading, then fluorescence release on GEF-driven exchange (Rab11A [8]): with R82 only partially decreasing SH3BP5 GEF activity | Mant-GDP loading, fluorescence release assay (Rab8): panel of evolutionarily related Rab GTPases loaded with Mant-GDP | Mant-GDP loading, then fluorescence release on GEF-driven exchange (Rab11A [9]): GEF assays on Q70L Rab11A showed a slightly elevated GEF-mediated nucleotide exchange rate

GEF activity on Rab11A (Mant-GDP release), mutant (1000 nM) compared with WT SH3BP5 (52 nM) (fold decrease) [10]: > 100
B1: SH3BP5 (LNQ52AAA) (natural protein)
chain: MDAALKRSRSEEPAEILPPARDEEEEEEEGMEQGLEEEEEVDPRIQGELEKAAASTDDINRRETELEDARQKFRSVLVEATVKLDELVKKIGKAVEDSKPYWEARRVARQAQLEAQKATQDFQRATEVLRAAKETISLAEQRLLEDDKRQFDSAWQEMLNHATQRVMEAEQTKTRSELVHKETAARYNAAMGRMRQLEKKLKRAINKSKPYFELKAKYYVQLEQLKKTVDDLQAKLTLAKGEYKMALKNLEMISDEIHERRRSSAMGPRGCGVGAEGSSTSVEDLPGSKPEPDAISVASEAFEDDSCSNFVSEDDSETQSVSSFSSGPTSPSEMPDQFPAVVRPGSLDLPSPVSLSEFGMMFPVLGPRSECSGASSPECEVERGDRAEGAENKTSDKANNNRGLSSSSGSGGSSKSQSSTSPEGQALENRMKQLSLQCSKGRDGIIADIKMVQIG

SH3BP5-mediated GEF activity (Mant-GDP release, kcat/Km), mutant compared with WT Rab11A (fold decrease) (Rab11A S40F (human)): > 100 | SH3BP5-mediated GEF activity (Mant-GDP release, kcat/Km), mutant compared with WT Rab11A (fold decrease) (Rab11A L38P (human)): > 100 | SH3BP5-mediated GEF activity (Mant-GDP release, kcat/Km), mutant compared with WT Rab11A (fold decrease) (Rab11A K41P (human)): > 100 | SH3BP5-mediated GEF activity (Mant-GDP release, kcat/Km), mutant compared with WT Rab11A (fold decrease) (Rab11A K13N (human)): > 100
B2: SH3BP5 (1–455), full-length (natural protein)
chain: MDAALKRSRSEEPAEILPPARDEEEEEEEGMEQGLEEEEEVDPRIQGELEKLNQSTDDINRRETELEDARQKFRSVLVEATVKLDELVKKIGKAVEDSKPYWEARRVARQAQLEAQKATQDFQRATEVLRAAKETISLAEQRLLEDDKRQFDSAWQEMLNHATQRVMEAEQTKTRSELVHKETAARYNAAMGRMRQLEKKLKRAINKSKPYFELKAKYYVQLEQLKKTVDDLQAKLTLAKGEYKMALKNLEMISDEIHERRRSSAMGPRGCGVGAEGSSTSVEDLPGSKPEPDAISVASEAFEDDSCSNFVSEDDSETQSVSSFSSGPTSPSEMPDQFPAVVRPGSLDLPSPVSLSEFGMMFPVLGPRSECSGASSPECEVERGDRAEGAENKTSDKANNNRGLSSSSGSGGSSKSQSSTSPEGQALENRMKQLSLQCSKGRDGIIADIKMVQIG
